Results on 24 compounds are retold here after US11401270B2, “Alcoxyamino derivatives for treating pain and pain related conditions” (ESTEVE PHARMACEUTICALS, S.A., priority 2017, dated 2022).

Each structure is given as a SMILES string. Like-named read-outs stand apart in the source and are kept apart here. Bounds are passed on as bounds.

For experiment [1], the target named is Human α2δ-1 subunit of Cav2.2 calcium channel (Homo sapiens (Human), UniProt P54289). Description: Binding Assay to Human α2δ-1 Subunit of Cav2.2 Calcium Channel. Conditions: human α2δ-1 enriched membranes, 15 nM [3H]-Gabapentin, read-out: Ki(nM) alpha2delta Hum. Summed up: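 Radioligand filtration binding at the α2δ-1 subunit, test compound at five concentrations; nonspecific binding defined with 10 μM pregabalin. Incubated 60 min at 27 °C, stopped by GF/C filtration (0.5% PEI presoaked) with ice-cold 50 mM Tris-HCl pH 7.4 washes; bound radioactivity counted by scintillation.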

Experiment [2] addresses Human norepinephrine transporter (NET) (Homo sapiens (Human), UniProt P23975). The experiment is described as follows: Binding Assay to Human Norepinephrine Transporter (NET). Conditions: Table 2, dual compounds; human NET enriched membranes, 5 nM [3H]-Nisoxetin; read-out: Ki(nM) NET Hum. The procedure:
Binding Assay to Human Norepinephrine Transporter (NET).
Human norepinephrine transporter (NET) enriched membranes (5 μg) were incubated with 5 nM of radiolabeled [3H]-Nisoxetin in assay buffer containing 50 mM Tris-HCl, 120 mM NaCl, 5 mM KCl, pH 7.4.
NSB (non specific binding) was measured by adding 10 μM desipramine. The binding of the test compound was measured in five different concentrations. After 60 min incubation at 4° C., binding reaction was terminated by filtering through Multiscreen GF/C (Millipore) presoaked in 0.5% polyethyleneimine in Vacuum Manifold Station, followed by 3 washes with ice-cold filtration buffer containing 50 mM Tris-HCl, 0.9% NaCl, pH 7.4.
Filter plates were dried at 60° C. for 1 hour and 30 μl of scintillation cocktail were added to each well before radioactivity reading.

Chain of Human α2δ-1 subunit of Cav2.2 calcium channel (P54289 25-1103): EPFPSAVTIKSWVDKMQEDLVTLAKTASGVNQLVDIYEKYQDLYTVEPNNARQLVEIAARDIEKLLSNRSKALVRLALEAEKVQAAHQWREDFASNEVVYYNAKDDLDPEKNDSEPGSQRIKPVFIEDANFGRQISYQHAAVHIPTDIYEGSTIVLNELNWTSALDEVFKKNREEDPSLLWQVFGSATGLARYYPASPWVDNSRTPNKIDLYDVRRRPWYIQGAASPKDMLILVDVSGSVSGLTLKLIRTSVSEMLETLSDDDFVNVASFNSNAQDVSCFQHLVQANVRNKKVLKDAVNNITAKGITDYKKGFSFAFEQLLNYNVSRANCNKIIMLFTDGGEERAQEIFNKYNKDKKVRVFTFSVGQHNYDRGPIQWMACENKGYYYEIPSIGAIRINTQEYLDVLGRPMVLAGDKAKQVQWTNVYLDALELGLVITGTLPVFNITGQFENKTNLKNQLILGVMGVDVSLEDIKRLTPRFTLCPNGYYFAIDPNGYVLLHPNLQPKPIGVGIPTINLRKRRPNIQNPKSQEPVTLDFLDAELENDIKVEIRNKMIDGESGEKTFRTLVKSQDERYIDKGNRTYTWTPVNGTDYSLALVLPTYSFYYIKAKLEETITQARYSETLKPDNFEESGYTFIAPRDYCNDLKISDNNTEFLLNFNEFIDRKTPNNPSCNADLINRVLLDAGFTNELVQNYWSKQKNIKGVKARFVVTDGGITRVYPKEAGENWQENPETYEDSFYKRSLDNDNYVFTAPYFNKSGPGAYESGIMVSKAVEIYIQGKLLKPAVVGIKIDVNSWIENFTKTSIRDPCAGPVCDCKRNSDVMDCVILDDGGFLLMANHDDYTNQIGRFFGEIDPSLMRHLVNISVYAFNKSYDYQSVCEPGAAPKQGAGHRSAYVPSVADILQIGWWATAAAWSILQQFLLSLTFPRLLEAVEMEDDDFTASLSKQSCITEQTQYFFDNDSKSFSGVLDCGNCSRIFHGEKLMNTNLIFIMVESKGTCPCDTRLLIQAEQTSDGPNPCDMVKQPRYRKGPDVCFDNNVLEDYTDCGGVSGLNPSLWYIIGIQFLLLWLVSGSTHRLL
Chain of Human norepinephrine transporter (NET) (P23975 whole entry): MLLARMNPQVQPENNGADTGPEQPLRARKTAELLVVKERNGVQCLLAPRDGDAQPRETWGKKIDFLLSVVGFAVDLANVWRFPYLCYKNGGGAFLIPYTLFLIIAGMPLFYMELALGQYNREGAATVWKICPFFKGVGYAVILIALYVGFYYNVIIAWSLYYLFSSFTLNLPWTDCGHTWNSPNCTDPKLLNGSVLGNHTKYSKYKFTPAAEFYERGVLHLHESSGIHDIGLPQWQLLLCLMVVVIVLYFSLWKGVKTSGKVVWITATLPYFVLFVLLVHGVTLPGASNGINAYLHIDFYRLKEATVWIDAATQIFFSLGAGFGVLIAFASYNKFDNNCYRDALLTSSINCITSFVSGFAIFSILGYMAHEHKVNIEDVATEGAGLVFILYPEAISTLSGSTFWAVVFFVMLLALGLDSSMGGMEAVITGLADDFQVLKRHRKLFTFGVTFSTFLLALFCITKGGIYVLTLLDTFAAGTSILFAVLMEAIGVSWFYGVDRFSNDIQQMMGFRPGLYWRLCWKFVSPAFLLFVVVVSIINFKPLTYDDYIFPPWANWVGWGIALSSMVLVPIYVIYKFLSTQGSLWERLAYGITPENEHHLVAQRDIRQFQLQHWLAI

Turning to `CNCCC(OCc1cccc(N2CCN(C)c3ccccc3C2)c1)c1ccccc1` (stereo not drawn) [Example 7, N-methyl-3-((3-(1-methyl-1,2,3,5-tetrahydro-4H-benzo[e][1,4]diazepin-4-yl)benzyl)oxy)-3-phenylpropan-1-amine], the Ki in experiment [1] (Table 1) was in the range of 500 to 3000 nM; in experiment [1] (Table 2, dual compounds), 500 to 3000 nM; in experiment [2] it was 500 to 1000 nM.
Turning to `CNCCC(OCc1cccc(N2CCCN(C)CC2)c1)c1cccs1` (stereo not drawn) [Example 10, N-methyl-3-((3-(4-methyl-1,4-diazepan-1-yl)benzyl)oxy)-3-(thiophen-2-yl)propan-1-amine], the Ki was in the range of 500 to 3000 nM in experiment [1] (Table 1); 500 to 3000 nM in experiment [1] (Table 2, dual compounds); 500 to 1000 nM in experiment [2].
`CCNc1ccc2c(n1)N(C)CCN(c1cccc(COC(CCNC)c3ccccc3)c1)C2=O` (stereo not drawn) [Example 29, 8-(Ethylamino)-1-methyl-4-(3-((3-(methylamino)-1-phenylpropoxy)methyl)phenyl)-1,2,3,4-tetrahydro-5H-pyrido[2,3-e][1,4]diazepin-5-one]: the Ki is 500 to 3000 nM in experiment [1] (Table 1); 500 to 3000 nM in experiment [1] (Table 2, dual compounds); 500 to 1000 nM in experiment [2].
For the compound `CNCCC(OCc1cccc(N2CCN(C)CCC2=O)c1)c1ccccc1` (stereo not drawn) [Example 34, 1-Methyl-4-(3-((3-(methylamino)-1-phenylpropoxy)methyl)phenyl)-1,4-diazepan-5-one], the Ki in experiment [1] (Table 1) lay within 500 to 3000 nM; in experiment [1] (Table 2, dual compounds) it was 500 to 3000 nM; in experiment [2], 100 to 500 nM.
As for `CNCCC(OCc1cccc(N2CCNCCC2=O)c1)c1ccccc1` (stereo not drawn) [Example 37, 4-(3-((3-(Methylamino)-1-phenylpropoxy)methyl)phenyl)-1,4-diazepan-5-one], the Ki in experiment [1] (Table 1) was in the range of 500 to 3000 nM; in experiment [1] (Table 2, dual compounds), 500 to 3000 nM; in experiment [2], 100 to 500 nM.
With `CCN1CCC(=O)N(c2cccc(OC(CCNC)c3cccs3)c2)CC1` (stereo not drawn) [Example 58, 1-Ethyl-4-(3-(3-(methylamino)-1-(thiophen-2-yl)propoxy)phenyl)-1,4-diazepan-5-one], the Ki in experiment [1] (Table 1) lay within 500 to 3000 nM; in experiment [1] (Table 2, dual compounds), 500 to 3000 nM; in experiment [2], 100 to 500 nM.
For the compound `CNCCC(Oc1cccc(N2CCN(C(C)C)CCC2=O)c1)c1cccs1` (stereo not drawn) [Example 60, 1-Isopropyl-4-(3-(3-(methylamino)-1-(thiophen-2-yl)propoxy)phenyl)-1,4-diazepan-5-one], the Ki in experiment [1] (Table 1) fell in the range of 500 to 3000 nM; in experiment [1] (Table 2, dual compounds), 500 to 3000 nM; in experiment [2], 500 to 1000 nM.
As for `CNCC[C@H](Oc1cccc(N2CCN(C(C)C)CCC2=O)c1)c1cccs1` [Example 66, (S)-1-isopropyl-4-(3-(3-(methylamino)-1-(thiophen-2-yl)propoxy)phenyl)-1,4-diazepan-5-one], the Ki in experiment [1] (Table 1) lay in the range of 500 to 3000 nM; in experiment [1] (Table 2, dual compounds), 500 to 3000 nM; in experiment [2], 100 to 500 nM.
In the case of `CNCC[C@@H](Oc1cccc(N2CCN(C(C)C)CCC2=O)c1)c1cccs1` [Example 67, (R)-1-isopropyl-4-(3-(3-(methylamino)-1-(thiophen-2-yl)propoxy)phenyl)-1,4-diazepan-5-one], the Ki was 100 to 500 nM in experiment [1] (Table 1); 100 to 500 nM in experiment [1] (Table 2, dual compounds); 500 to 1000 nM in experiment [2].
With `CNCCC(Oc1cccc(N2CCN(C)c3nc(N(C)C)ccc3C2=O)c1)c1cccs1` (stereo not drawn) [Example 70, 8-(Dimethylamino)-1-methyl-4-(3-(3-(methylamino)-1-(thiophen-2-yl)propoxy)phenyl)-1,2,3,4-tetrahydro-5H-pyrido[2,3-e][1,4]diazepin-5-one], the Ki lay within 500 to 3000 nM in experiment [1] (Table 1); 500 to 3000 nM in experiment [1] (Table 2, dual compounds); 100 to 500 nM in experiment [2].
In the case of `CNCCC(Oc1cccc(N2CCN(C(C)C)CCC2=O)c1)c1ccsc1` (stereo not drawn) [Example 75, 1-Isopropyl-4-(3-(3-(methylamino)-1-(thiophen-3-yl)propoxy)phenyl)-1,4-diazepan-5-one], the Ki fell in the range of 100 to 500 nM in experiment [1] (Table 1); 100 to 500 nM in experiment [1] (Table 2, dual compounds); 100 to 500 nM in experiment [2].
`CNCC[C@@H](Oc1cccc(N2CCN(C(C)C)CCC2=O)c1)c1ccsc1` [Example 76, (R)-1-isopropyl-4-(3-(3-(methylamino)-1-(thiophen-3-yl)propoxy)phenyl)-1,4-diazepan-5-one]: the Ki is 500 to 3000 nM in experiment [1] (Table 1); 500 to 3000 nM in experiment [1] (Table 2, dual compounds); under 100 nM in experiment [2].
As to `CNCC[C@H](Oc1cccc(N2CCN(C(C)C)CCC2=O)c1)c1ccsc1` [Example 77, (S)-1-isopropyl-4-(3-(3-(methylamino)-1-(thiophen-3-yl)propoxy)phenyl)-1,4-diazepan-5-one], the Ki in experiment [1] (Table 1) is 100 to 500 nM; in experiment [1] (Table 2, dual compounds), 100 to 500 nM; in experiment [2], 100 to 500 nM.
In the case of `CNCCC(Oc1cccc(N2CCN(C)c3nc(C)ccc3C2=O)c1)c1ccsc1` (stereo not drawn) [Example 78, 1,8-Dimethyl-4-(3-(3-(methylamino)-1-(thiophen-3-yl)propoxy)phenyl)-1,2.3,4-tetrahydro-5H-pyrido[2,3-e][1,4]diazepin-5-one], the Ki in experiment [1] (Table 1) lay within 100 to 500 nM; in experiment [1] (Table 2, dual compounds), 100 to 500 nM; in experiment [2] it was 100 to 500 nM.
On to `CNCC[C@H](Oc1cccc(N2CCN(C)c3nc(C)ccc3C2=O)c1)c1ccsc1` [Example 80, (S)-1,8-dimethyl-4-(3-(3-(methylamino)-1-(thiophen-3-yl)propoxy)phenyl)-1,2,3,4-tetrahydro-5H-pyrido[2,3-e][1,4]diazepin-5-one], for which the Ki was 100 to 500 nM in experiment [1] (Table 1); 100 to 500 nM in experiment [1] (Table 2, dual compounds); under 100 nM in experiment [2].
For the compound `CNCC[C@H](Oc1cccc(N2CCN(C)c3nc(C(F)(F)F)ccc3C2=O)c1)c1cccs1` [Example 81, (S)-1-methyl-4-(3-(3-(methylamino)-1-(thiophen-2-yl)propoxy)phenyl)-8-(trifiuoromethyl)-1.2.3,4-tetrahydro-5H-pyrido[2.3-e][1,4]diazepin-5-one], the Ki in experiment [1] (Table 1) was 100 to 500 nM; in experiment [1] (Table 2, dual compounds), 100 to 500 nM; in experiment [2] it was 500 to 1000 nM.
As for `CNCC[C@H](Oc1cccc(N2CCN(C)c3nc(N)ccc3C2=O)c1)c1cccs1` [Example 83, (S)-8-amino-1-methyl-4-(3-(3-(methylamino)-1-(thiophen-2-yl)propoxy)phenyl)-1,2,3,4-tetrahydro-5H-pyrido[2,3-e][1,4]diazepin-5-one], the Ki in experiment [1] (Table 1) was in the range of 100 to 500 nM; in experiment [1] (Table 2, dual compounds) it was 100 to 500 nM; in experiment [2] it was 100 to 500 nM.
Regarding `CNCCC(OCc1cccc(N2CCN(C)CCC2=O)c1)c1cccs1` (stereo not drawn) [Example 84, 1-Methyl-4-(3-((3-(methylamino)-1-(thiophen-2-yl)propoxy)methyl)phenyl)-1,4-diazepan-5-one], the Ki in experiment [1] (Table 1) was 500 to 3000 nM; in experiment [1] (Table 2, dual compounds), 500 to 3000 nM; in experiment [2], 100 to 500 nM.
Consider `CCNC[C@H]1CC(=O)N(c2cccc(O[C@@H](CCNC)c3cccs3)c2)CCN1C` [Example 86, (R)-7-((ethylamino)methyl)-1-methyl-4-(3-((S)-3-(methylamino)-1-(thiophen-2-yl)propoxy)phenyl)-1,4-diazepan-5-one], for which the Ki lay in the range of 500 to 3000 nM in experiment [1] (Table 1); 500 to 3000 nM in experiment [1] (Table 2, dual compounds); 100 to 500 nM in experiment [2].
In the case of `CNCC[C@H](Oc1ccc(CN2CCN(C)c3ncccc3C2=O)cc1)c1cccs1` [Example 90, (S)-1-methyl-4-(4-(3-(methylamino)-1-(thiophen-2-yl)propoxy)benzyl)-1,2,3,4-tetrahydro-5H-pyrido[2,3-e][1,4]diazepin-5-one], the Ki in experiment [1] (Table 1) is under 100 nM; in experiment [1] (Table 2, dual compounds) it was under 100 nM; in experiment [2], 100 to 500 nM.
As to `CNCC[C@H](Oc1ccc(CN2CCN(C)c3nc(C)ccc3C2=O)cc1)c1cccs1` [Example 91, (S)-1,8-dimethyl-4-(4-(3-(methylamino)-1-(thiophen-2-yl)propoxy)benzyl)-1,2,3,4-tetrahydro-5H-pyrido[2,3-e][1,4]diazepin-5-one], the Ki in experiment [1] (Table 1) was in the range of 100 to 500 nM; in experiment [1] (Table 2, dual compounds) it was 100 to 500 nM; in experiment [2] it was 100 to 500 nM.
On to `CCNc1ccc2c(n1)N(C)CCN(Cc1ccc(O[C@@H](CCNC)c3cccs3)cc1)C2=O` [Example 92, (S)-8-(ethylamino)-1-methyl-4-(4-(3-(methylamino)-1-(thiophen-2-yl)propoxy)benzyl)-1,2,3,4-tetrahydro-5H-pyrido[2,3-e][1,4]diazepin-5-one], for which the Ki in experiment [1] (Table 1) was 100 to 500 nM; in experiment [1] (Table 2, dual compounds), 100 to 500 nM; in experiment [2] it was under 100 nM.
Take `CNCC[C@H](Oc1ccc(CN2CCN(C)c3nc(C(F)(F)F)ccc3C2=O)cc1)c1cccs1` [Example 93, (S)-1-methyl-4-(4-(3-(methylamino)-1-(thiophen-2-yl)propoxy)benzyl)-8-(trifluoromethyl)-1,2,3,4-tetrahydro-5H-pyrido[2,3-e][1,4]diazepin-5-one]: the Ki in experiment [1] (Table 1) was 100 to 500 nM; in experiment [1] (Table 2, dual compounds), 100 to 500 nM; in experiment [2] it was 100 to 500 nM.
For `CNCC[C@H](Oc1ccc(CN2CCN(C)c3nc(OC)ccc3C2=O)cc1)c1cccs1` [Example 94, (S)-8-methoxy-1-methyl-4-(4-(3-(methylamino)-1-(thiophen-2-yl)propoxy)benzyl)-1,2,3,4-tetrahydro-5H-pyrido[2,3-e][1,4]diazepin-5-one], the Ki in experiment [1] (Table 1) fell in the range of 100 to 500 nM; in experiment [1] (Table 2, dual compounds), 100 to 500 nM; in experiment [2], 100 to 500 nM.
